# Laboratory results from ChEMBL document CHEMBL1145134, “Inclusion complexation and solubilization of paclitaxel by bridged bis(beta-cyclodextrin)s containing a tetraethylenepentaamino spacer” (2003).
# System: K562
# Assay: Antiproliferative activity of the paclitaxel-TPCD complex was tested against K562 erythroleukemia after 72 hr at a concentration of 1E-6 mg/mL using MTT cytotoxicity assay
# Type: functional, Homo sapiens
compound,measurement,value
CC(=O)O[C@H]1C(=O)[C@@]2(C)[C@H]([C@H](OC(=O)c3ccccc3)[C@]3(O)C[C@H](OC(=O)[C@H](O)[C@@H](NC(=O)c4ccccc4)c4ccccc4)C(C)=C1C3(C)C)[C@]1(OC(C)=O)CO[C@@H]1C[C@@H]2O [PACLITAXEL],Activity,57.7%
